# Results: ChEMBL document CHEMBL1201862, “PubChem BioAssay data set” (2004)
# Active and inactive are the calls of the source. Rule as the data show it, for most assays here: actives have a measured EC50 and inactives only a lower limit.
# Legend:
# [1] = Luminescence Cell-Based Dose Response HTS to Identify Inhibitors of 5'UTR Stem-Loop Driven Prion Protein mRNA Translation in H4 Neuroglioblastoma Cells. [Related pubchem assays: 1827 (Project Summary), 1813 (Primary HTS)]; assay type: functional
# [2] = inhibitors of SNCA 5'UTR-driven reporter translation, confirmation, H4 neuroglioma cells, luminescence (AID 1988); assay type: functional, cell-based
# [3] = inhibitors of firefly luciferase expression or activity, dose response, H4 neuroglioma cells, luminescence (AID 1990); assay type: functional, cell-based
# [4] = Luminescence Cell-Based Dose Response HTS to Identify Activators of Luciferase Translation or Activity in H4 […] Cells. [Related pubchem assays: 1829 (Project Summary), 1814 (Primary HTS)]; assay type: functional
# [5] = Luminescence Cell-Based Dose Confirmation HTS to Identify Activators of 5'UTR Stem-Loop Driven Alpha-Synuclein mRNA Translation in H4 Neuroglioblastoma Cells. [Related pubchem assays: 1829 (Project Summary), 1814 (Primary HTS)]; assay type: functional
# [6] = tested on: H4; assay: Luminescence Cell-Based Dose Response HTS to Identify Activators of 5'UTR Stem-Loop Driven Prion Protein mRNA Translation in H4 Neuroglioblastoma Cells. [Related pubchem assays: 1829 (Project Summary), 1814 (Primary HTS)]; assay type: functional; details: Homo sapiens
# [7] = growth suppression of beta-catenin-knockout colon cells, dose response, cell-based, HCT116, human colon tumor (AID 1045); assay type: functional;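 also: HCT116 colon tumor cells with beta catenin knocked out; cells exposed to compound for 60 hours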
# [8] = growth suppression of PTEN-null colon cells, dose response, cell-based, HCT116 PTEN knockout (AID 1047); assay type: functional;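 also: HCT116 colon tumor cells with PTEN knocked out; cells exposed to compound for 60 hours before readout; potency for loss of cell viability measured by luminescence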
# [9] = target: T1, Replicative DNA helicase DnaB (Mycobacterium tuberculosis, UniProt P9WMR3); assay: DnaB intein splicing inhibitors, dose response, biochemical, cell-free fluorescence (AID 449749); assay type: functional
# T1 sequence (P9WMR3 whole entry): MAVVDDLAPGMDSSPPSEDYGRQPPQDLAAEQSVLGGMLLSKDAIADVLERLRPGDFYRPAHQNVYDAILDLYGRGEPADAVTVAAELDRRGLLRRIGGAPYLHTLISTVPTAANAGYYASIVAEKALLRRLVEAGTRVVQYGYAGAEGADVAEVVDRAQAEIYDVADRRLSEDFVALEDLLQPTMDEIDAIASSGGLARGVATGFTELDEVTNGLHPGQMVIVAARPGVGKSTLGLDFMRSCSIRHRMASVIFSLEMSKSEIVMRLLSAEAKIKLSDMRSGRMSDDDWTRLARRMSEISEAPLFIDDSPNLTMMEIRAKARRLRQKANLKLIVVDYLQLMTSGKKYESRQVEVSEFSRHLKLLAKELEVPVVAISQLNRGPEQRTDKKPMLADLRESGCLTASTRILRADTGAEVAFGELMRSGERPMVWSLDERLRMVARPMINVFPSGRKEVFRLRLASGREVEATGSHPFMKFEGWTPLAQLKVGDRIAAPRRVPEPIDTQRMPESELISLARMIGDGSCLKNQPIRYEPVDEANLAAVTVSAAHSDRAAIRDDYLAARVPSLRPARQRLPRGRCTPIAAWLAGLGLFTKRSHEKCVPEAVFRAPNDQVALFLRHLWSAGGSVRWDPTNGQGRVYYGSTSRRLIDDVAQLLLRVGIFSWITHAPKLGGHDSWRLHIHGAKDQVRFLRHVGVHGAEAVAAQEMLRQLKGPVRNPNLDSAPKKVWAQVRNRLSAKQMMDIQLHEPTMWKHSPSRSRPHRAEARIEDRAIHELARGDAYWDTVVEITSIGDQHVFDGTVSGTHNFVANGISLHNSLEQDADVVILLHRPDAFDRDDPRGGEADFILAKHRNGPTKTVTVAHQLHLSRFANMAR
# [10] = target: T2, Protein RecA (Mycobacterium tuberculosis, UniProt P9WHJ3); assay: Fluorescence Cell-Free Homogeneous Dose Retest to Identify Inhibitors of RecA-Intein Splicing Activity. [Related pubchem assays (depositor defined):AID2097, AID2223, AID489010, AID492950]; assay type: functional
# T2 sequence (P9WHJ3 whole entry): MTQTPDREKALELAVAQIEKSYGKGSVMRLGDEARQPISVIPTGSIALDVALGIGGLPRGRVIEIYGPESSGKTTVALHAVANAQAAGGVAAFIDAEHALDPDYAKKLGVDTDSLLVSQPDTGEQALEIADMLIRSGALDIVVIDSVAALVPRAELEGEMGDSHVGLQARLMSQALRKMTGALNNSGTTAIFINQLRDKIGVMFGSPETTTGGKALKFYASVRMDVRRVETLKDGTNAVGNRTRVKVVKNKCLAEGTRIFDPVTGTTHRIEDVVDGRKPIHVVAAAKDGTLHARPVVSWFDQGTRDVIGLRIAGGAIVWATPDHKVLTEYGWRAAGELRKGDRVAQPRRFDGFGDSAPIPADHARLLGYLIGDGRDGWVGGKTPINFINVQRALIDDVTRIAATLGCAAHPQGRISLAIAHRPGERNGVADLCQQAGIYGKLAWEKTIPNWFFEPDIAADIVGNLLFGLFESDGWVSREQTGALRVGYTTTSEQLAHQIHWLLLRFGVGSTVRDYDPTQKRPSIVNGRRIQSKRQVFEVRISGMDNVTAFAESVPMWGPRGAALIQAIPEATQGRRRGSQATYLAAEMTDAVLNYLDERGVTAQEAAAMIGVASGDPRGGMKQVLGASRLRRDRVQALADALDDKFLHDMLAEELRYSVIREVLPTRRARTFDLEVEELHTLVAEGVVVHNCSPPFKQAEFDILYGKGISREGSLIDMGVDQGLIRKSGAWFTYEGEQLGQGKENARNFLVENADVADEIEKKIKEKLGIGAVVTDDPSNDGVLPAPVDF
# [11] = target: T3, Heat shock factor protein 1 (Mus musculus, UniProt P38532); assay: HSF1 potentiators in luciferase reporter cells, confirmation, cell-based, NIH3T3, luminescence, dose retest (AID 435004); assay type: functional;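 also: stress induced by proteasome inhibitor MG132 added 30 min after compound; luciferase reporter driven by HSF1 response element in NIH3T3 cells; actives raise luminescence as potentiators of the MG132 stress response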
# T3 sequence (P38532 whole entry): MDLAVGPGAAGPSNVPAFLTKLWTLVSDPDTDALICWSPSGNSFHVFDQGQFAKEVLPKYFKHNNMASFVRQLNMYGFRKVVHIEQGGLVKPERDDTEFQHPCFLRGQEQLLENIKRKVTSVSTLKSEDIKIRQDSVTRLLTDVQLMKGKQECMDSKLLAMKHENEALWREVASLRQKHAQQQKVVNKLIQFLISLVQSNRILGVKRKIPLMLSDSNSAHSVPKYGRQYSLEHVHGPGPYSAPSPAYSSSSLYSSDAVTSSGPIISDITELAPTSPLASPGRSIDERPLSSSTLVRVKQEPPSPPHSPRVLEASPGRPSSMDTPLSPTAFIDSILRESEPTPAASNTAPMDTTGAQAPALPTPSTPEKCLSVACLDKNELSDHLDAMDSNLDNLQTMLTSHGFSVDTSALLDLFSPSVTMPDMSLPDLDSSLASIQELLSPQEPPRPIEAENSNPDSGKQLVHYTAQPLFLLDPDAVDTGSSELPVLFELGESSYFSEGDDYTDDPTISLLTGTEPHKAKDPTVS
# [12] = tested on: Streptococcus sp. 'group A'; assay: growth inhibition of control SK(-) GAS strain, dose response, counter-screen for streptokinase expression inhibitor project, luminescence, kanamycin, BacTiterGlo, confirmation (AID 1900); assay type: functional, organism-based
# [13] = tested on: Streptococcus; assay: Group A Streptococcus viability loss, dose response, counter-screen for streptokinase expression inhibitor project, luminescence, BacTiterGlo (AID 1915); assay type: functional, organism-based;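 also: potency for reduction of bacterial viability or growth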
# [14] = target: T4, Streptokinase A (Streptococcus pyogenes serotype M1, UniProt P10520); assay: S. pyogenes streptokinase expression inhibitors, potency, dose response, plasminogen activation absorbance, OD405 (AID 1914); assay type: functional, Streptococcus pyogenes M1 GAS;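 also: secreted streptokinase activity via plasminogen activation per viability signal from cell pellet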
# T4 sequence (P10520 whole entry): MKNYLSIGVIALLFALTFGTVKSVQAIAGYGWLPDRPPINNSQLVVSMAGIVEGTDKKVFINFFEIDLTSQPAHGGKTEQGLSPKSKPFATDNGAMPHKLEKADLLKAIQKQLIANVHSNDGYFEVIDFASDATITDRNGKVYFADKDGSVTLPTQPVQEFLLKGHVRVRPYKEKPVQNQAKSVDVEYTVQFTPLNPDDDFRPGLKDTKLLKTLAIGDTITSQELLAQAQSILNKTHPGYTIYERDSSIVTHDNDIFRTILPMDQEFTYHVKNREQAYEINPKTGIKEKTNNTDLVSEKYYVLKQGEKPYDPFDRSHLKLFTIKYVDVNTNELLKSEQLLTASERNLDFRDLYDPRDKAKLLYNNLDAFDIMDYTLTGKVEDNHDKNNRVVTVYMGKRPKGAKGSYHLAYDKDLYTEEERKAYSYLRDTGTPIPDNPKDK
compound,measurement,setting,value
CCOc1cc(NC(=O)c2ccccc2C)c(OCC)cc1NC(=O)C1=Cc2ccccc2OC1,EC50,[1],18.7 µM (active)
same,EC50,[2],9.61 µM (active)
same,EC50,[3],> 120 µM (not active)
COc1ccc2oc(=O)c(-c3nnc(NCc4ccco4)s3)cc2c1,EC50,[4],78.7 µM (active)
same,EC50,[5],23.1 µM (active)
same,EC50,[6],1.91 µM (active)
COc1ccc(F)cc1CN1CCN(c2ncnc3scc(-c4ccccc4)c23)CC1,EC50,[1],23.9 µM (active)
same,EC50,[2],15.6 µM (active)
same,EC50,[3],15.8 µM (active)
CCOc1ccc(NC(c2ccccn2)c2oc(CO)cc(=O)c2O)cc1 (centres undefined),EC50,[4],0.175 µM (active)
same,EC50,[6],22.2 µM (active)
C[C@@H]1OC(Nc2ccc(N=Nc3ccccc3)cc2)[C@H](O)[C@H](O)[C@H]1O (some centres undefined),EC50,[4],54.8 µM (active)
same,EC50,[5],16.9 µM (active)
same,EC50,[6],11.1 µM (active)
Cc1ccc(S(=O)(=O)N2CCOC23CCN(C(=O)c2ccc(Cl)cc2Cl)CC3)cc1,EC50,[1],17.7 µM (active)
same,EC50,[2],13.8 µM (active)
same,EC50,[3],> 120 µM (not active)
O=C(Nc1ccc(NC(=O)c2sc3ccccc3c2Cl)cc1)c1ccco1,EC50,[7],9.19 µM (active)
same,EC50,[8],9.27 µM (active)
COc1ccccc1C(=O)Nc1nnc(C)s1,EC50,[4],4.92 µM (active)
same,EC50,[5],0.108 µM (active)
same,EC50,[6],26.3 µM (active)
CC1CCc2c(c3ccccc3n2C(=O)CCl)C1 (centres undefined),AC50,[9],> 380 µM (inactive)
same,EC50,[10],0.751 µM (active)
O=S(=O)(Nc1ccc(-c2nnc3n2CCCCC3)cc1)c1ccc2nc(O)oc2c1,EC50,[11],> 260 µM (inactive)
COC(=O)c1nnn(CC(=O)NC(=O)Nc2ccc(F)cc2)c1C(=O)OC,EC50,[11],> 260 µM (inactive)
CSc1ccc(/C=N\Nc2nncn2N)cc1,EC50,[11],141 µM (active)
Cc1cccc2cc3c(nc12)S/C(=N/CC1CCCO1)N(Cc1ccco1)C3 (centres undefined),EC50,[11],44.6 µM (active)
Cc1n[nH]c(O)c1/C=N/Cc1cccs1,EC50,[11],> 260 µM (inactive)
CCCCCC(=O)Cc1cc(O)cc2c1C(=O)Oc1cc(O)c(C(=O)O)c(CCCCC)c1O2 [PHYSODIC ACID],EC50,[12],2.36 µM (active)
same,EC50,[13],> 150 µM (not active)
same,EC50,[14],15.9 µM (active)
same,AC50,[9],2.05 µM (active)
same,EC50,[10],3.23 µM (active)
